In patent US20150274639A1, “METHODS OF USE FOR COMPOSITIONS COMPRISING A BIOCIDAL POLYAMINE” (Curza Global, LLC, priority 2013, published 2015):
In brackets after ≈: the same amount, converted by molar mass.

How the values were obtained:
P. aeruginosa biofilm [1] = assay: MBEC, MBEC Inoculation Tray by Innovotech (to 10^2 CFU/peg in 24 hours); assay type: cell-based; conditions: Pseudomonas aeruginosa; Table 3A titled MICs; group head missing, values match MBEC; read-out: MIC, P. aeruginosa (second P. aeruginosa)
From the text: To determine the MBEC of each polyamine compound, the MBEC Inoculation Tray by Innovotech, formerly known as the Calgary biofilm device, was used. Within this device, biofilms grow on the surface of polystyrene pegs, 96 of which are attached to a lid. These pegs are inserted into a flat bottom 96-well plate. In this instance, the MBEC of a molecule was defined as the concentration of compound (in μg/mL) required to reduce 10^5 or 10^6 CFU/peg (biofilm levels varied by isolate) to 10^2 CFU/peg in a 24-hour period.
Following the manufacturer's guidelines, biofilms were grown on the surface of each peg by first making a 0.5 McFarland of each isolate. The 0.5 McFarland was diluted 1:100 in CAMHB. Into each well of a flat bottom 96-well plate, 150 μL of broth were pipetted. The plate was shaken at 100 rpm for 24 hours (P. aeruginosa and A. baumannii) or 48 hours (MRSA). The pegs were then placed into a separate flat bottom 96-well plate for 10 seconds with 200 μL of phosphate buffered saline (PBS) in each well to remove nonadherent cells. The lid was then placed into a 96-well plate that contained varying concentrations of antimicrobial with 200 μL per well. The plate was incubated for 24 hours at 37° C. after which time 100 μL of broth were plated on TSA. TSA plates were incubated 24 hours at 37° C. and the number of CFU counted to calculate the CFU/peg. […]

MRSA biofilm = assay: EBEC, high number biofilms on PEEK membranes (10^9 to 10^2 CFU/PEEK membrane in 24 hours); assay type: cell-based, methicillin-resistant Staphylococcus aureus; conditions: Staphylococcus aureus, Table 3B titled MICs, group head missing, values match EBEC
MRSA = assay: MIC against MRSA as defined by CLSI (FIG. 25 series); assay type: cell-based, methicillin-resistant Staphylococcus aureus; conditions: Staphylococcus aureus
Description: To determine the MIC of the polyamine chains alone and the synthesized compounds against MRSA and P. aeruginosa ATCC 27853, a modified protocol from the Clinical and Laboratory Standards Institute (CLSI) guideline M26-A was used. […] All data was collected using cation adjusted MHB for standardization.
As mentioned, MRSA and P. aeruginosa ATCC 27853 were grown on Columbia blood agar plates prior to experimentation. From the blood agar plates, a 0.5 McFarland standard was made of each isolate. This equated to approximately 5×10^7 cells/mL for the MRSA isolate and approximately 3×10^7 cells/mL for the P. aeruginosa ATCC 27853 isolate. Of the 0.5 McFarland stock solution, 50 μL were added to MHB. […] All tests were performed such that a final volume of 5 mL of MHB were obtained. This provided a final bacterial concentration of approximately 5×10^5 cells/mL.
Each sample was incubated in glass test tubes at 37° C. for 24 hours, then plated in duplicate on tryptic soy agar (TSA) using a 10-fold dilution series. TSA plates were further incubated 24 hours at 37° C. The number of colony forming units (CFU) that grew were counted in order to calculate the number of bacteria that were present per mL in the original MHB solution.

P. aeruginosa biofilm [2] = assay: EBEC, high number biofilms on PEEK membranes (10^9 to 10^2 CFU/PEEK membrane in 24 hours); assay type: cell-based; conditions: Pseudomonas aeruginosa; Table 3B titled MICs; group head missing, values match EBEC
Description: In addition to determining the MIC and the MBEC of polyamine compounds against planktonic bacteria and low number biofilms, our group wanted to determine the efficacy of polyamine compounds against high number biofilms. To do so, biofilms were grown on the surface of polyetheretherketone (PEEK) membranes using a membrane biofilm reactor. This reactor is similar to the CDC biofilm reactor, but rather than growing biofilms on coupon surfaces, the reactor was modified to hold PEEK membranes. In short, to grow biofilms within this system, 500 mL of brain heart infusion (BHI) broth were inoculated with 1 mL of a 0.5 McFarland. The reactor was placed on a hot plate set at 34° C. and the bacteria were grown under batch conditions for 24 hours. Following this protocol, biofilms typically grow to 10^9 CFU/PEEK membrane. […] A solution of 10% BHI was then flowed through the reactor at a rate of 6.94 mL/min for an additional 24 hours. PEEK membranes were then removed and placed into 2 mL of CAMHB that contained a desired concentration of polyamine compound or antibiotic. The EBEC was defined as the concentration of antimicrobial required to reduce a biofilm from approximately 10^9 CFU/PEEK membrane to approximately 10^2 CFU/PEEK membrane in a 24-hour period.

SMILES	MIC (P. aeruginosa biofilm [1]) [µg/mL]	MIC (MRSA biofilm) [µg/mL]	MIC (MRSA) [µg/mL]	MIC (P. aeruginosa biofilm [2]) [µg/mL]
NCCCNCCCNCc1cccc(CNCCCNCCCN)c1 [CZ-25]	> 500	> 5000	45 (≈ 123 µM)	> 5000
NCCCNCCCNCc1cc(CNCCCNCCCN)cc(CNCCCNCCCN)c1 [CZ-52]	400 (≈ 788 µM)	250 (≈ 492 µM)	3 (≈ 5.91 µM)	> 5000
